Results on 47 molecules are retold here after ChEMBL document CHEMBL1201862, “PubChem BioAssay data set” (2004).

Calls of active or inactive are those of the source. Rule as the data show it, for most assays here: actives have a measured EC50 and inactives only a lower limit. A value given as a limit tells only on which side of the number the result lay.

Test [1] deals with T1, Rac GTPase-activating protein 1 (Homo sapiens, UniProt Q9H0H5).
T1 sequence (Q9H0H5 whole entry): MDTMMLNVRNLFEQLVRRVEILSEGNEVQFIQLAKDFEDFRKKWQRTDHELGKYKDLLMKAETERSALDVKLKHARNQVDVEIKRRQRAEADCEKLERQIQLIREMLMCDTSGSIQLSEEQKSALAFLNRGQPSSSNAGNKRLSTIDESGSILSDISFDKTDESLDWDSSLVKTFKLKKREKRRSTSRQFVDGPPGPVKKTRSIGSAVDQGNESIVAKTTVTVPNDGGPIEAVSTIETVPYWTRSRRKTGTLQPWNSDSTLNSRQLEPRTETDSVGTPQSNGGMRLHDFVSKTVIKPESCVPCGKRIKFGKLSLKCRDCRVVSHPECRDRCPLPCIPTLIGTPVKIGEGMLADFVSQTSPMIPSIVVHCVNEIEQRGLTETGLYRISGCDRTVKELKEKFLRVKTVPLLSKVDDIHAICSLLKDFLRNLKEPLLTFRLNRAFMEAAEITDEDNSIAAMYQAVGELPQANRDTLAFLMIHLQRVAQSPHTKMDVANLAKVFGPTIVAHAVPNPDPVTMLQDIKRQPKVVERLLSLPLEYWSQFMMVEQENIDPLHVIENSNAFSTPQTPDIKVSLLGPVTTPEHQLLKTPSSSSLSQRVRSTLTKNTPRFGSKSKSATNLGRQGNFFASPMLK
Kind of test: MgcRacGAP GTPase-activating activity inhibitors, confirmation, biochemical, ADP Hunter fluorescence, primary and confirmatory (AID 624330). Type of test: functional.

The test system of test [2] is Streptococcus sp. 'group A'. Kind of test: growth inhibition of control SK(-) GAS strain, dose response, counter-screen for streptokinase expression inhibitor project, luminescence, kanamycin, BacTiterGlo, confirmation (AID 1900). Type of test: functional, organism-based. (In general: The purpose of a counterscreen is to sort out artefacts and off-target activity.)

Another test has as its target T2, Streptokinase A (Streptococcus pyogenes serotype M1, UniProt P10520).
T2 sequence (P10520 whole entry): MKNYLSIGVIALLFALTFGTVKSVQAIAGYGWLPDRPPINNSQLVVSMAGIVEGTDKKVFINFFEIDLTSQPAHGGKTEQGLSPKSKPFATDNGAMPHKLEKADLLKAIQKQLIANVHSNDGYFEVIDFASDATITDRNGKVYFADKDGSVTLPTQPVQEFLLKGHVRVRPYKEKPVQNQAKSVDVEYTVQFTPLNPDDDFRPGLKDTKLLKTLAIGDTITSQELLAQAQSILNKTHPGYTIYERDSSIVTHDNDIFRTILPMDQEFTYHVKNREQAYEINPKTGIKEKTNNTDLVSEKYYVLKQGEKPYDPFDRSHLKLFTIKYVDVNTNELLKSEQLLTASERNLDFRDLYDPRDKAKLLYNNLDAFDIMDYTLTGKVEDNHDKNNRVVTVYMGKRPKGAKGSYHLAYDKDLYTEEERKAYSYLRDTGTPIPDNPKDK
Kind of test: S. pyogenes streptokinase expression inhibitors, potency, dose response, plasminogen activation absorbance, OD405 (AID 1914).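 Also: secreted streptokinase activity via plasminogen activation per viability signal from cell pellet.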 It counts as functional, Streptococcus pyogenes M1 GAS.

The next test concerns Streptococcus. Kind of test: Group A Streptococcus viability loss, dose response, counter-screen for streptokinase expression inhibitor project, luminescence, BacTiterGlo (AID 1915).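 Also: potency for reduction of bacterial viability or growth.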 It counts as functional, organism-based.
Test [3] is described as follows: inhibitors of intracellular T. cruzi replication, confirmation, NIH3T3 host cells, beta-gal luminescence (AID 2044).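 Also: intracellular parasites grown in NIH/3T3 mouse fibroblasts as host cells; luminescent beta-galactosidase reporter signal from transgenic T. cruzi replicating inside host cells; inhibitors lower the luminescence signal.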 It counts as functional, cell-based.
The nature of test [4]: cytotoxicity toward NIH3T3 fibroblasts, dose response, counter-screen, cell-based, ATP luminescence, mouse fibroblasts (AID 2010).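 Also: cells exposed to compound for about 90 hours before reading.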 Type of test: functional.
Another test concerns the target Paired box protein Pax-8 (Homo sapiens, UniProt Q06710). Kind of test: inhibitors of PAX8-driven TPO luciferase reporter, dose response, RMG-I cells, cherry-pick (AID 687027).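 Also: luciferase reporter driven by Pax8 target thyroperoxidase promoter measured by SteadyGlo luminescence.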 It counts as functional, cell-based.
A short description of test [5]: Luminescence Cell-Based Dose Retest to Confirm Inhibitors of Cancer Stem Cells. [Related pubchem assays (depositor defined):AID2717, AID2721]. Type of test: functional. Conditions: Homo sapiens.

Paired box protein Pax-8, sequence (Q06710 whole entry): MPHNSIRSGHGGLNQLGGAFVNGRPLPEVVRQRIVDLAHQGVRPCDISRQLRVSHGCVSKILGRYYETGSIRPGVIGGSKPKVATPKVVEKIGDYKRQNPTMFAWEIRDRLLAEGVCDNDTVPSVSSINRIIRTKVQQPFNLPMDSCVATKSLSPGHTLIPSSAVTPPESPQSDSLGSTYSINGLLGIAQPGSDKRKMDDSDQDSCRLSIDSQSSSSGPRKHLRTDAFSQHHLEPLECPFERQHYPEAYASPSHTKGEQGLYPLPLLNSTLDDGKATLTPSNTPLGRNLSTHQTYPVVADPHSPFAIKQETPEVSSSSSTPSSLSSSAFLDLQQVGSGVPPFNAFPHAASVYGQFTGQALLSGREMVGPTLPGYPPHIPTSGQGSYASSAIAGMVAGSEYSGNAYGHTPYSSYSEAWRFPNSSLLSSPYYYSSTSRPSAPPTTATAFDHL

Regarding `CCOc1cc(/C=C2\SC(N)=NC2=O)ccc1O`, in test [1], the IC50 was 47 µM (active).

For `Cc1cccc(OCC(=O)Nc2ccccc2N2CCCCC2)c1C`, the values for the EC50 (in test [2]; on Streptokinase A; in the test with Streptococcus) were 9.25 µM (active), 5.39 µM (active) and 13.4 µM (active), respectively.

For `Cc1ccc(CN2CCC(Oc3cccc(C(=O)N(C)CCN(C)C)c3)CC2)cc1C`, the EC50 in test [3] is < 0.1 µM (active); in test [4], 26 µM (active).

As to `Nc1nc(Nc2cccc(Cl)c2)nc(NCc2ccco2)c1[N+](=O)[O-]`, the figures for the EC50 (in test [2]; at Streptokinase A; with Streptococcus) were 7.28 µM (active), > 150 µM (not active) and 16.4 µM (active), respectively.

With `C[C@@H]1CCCCO[C@H](CN(C)C(=O)NC2CCCCC2)[C@@H](C)CN([C@@H](C)CO)C(=O)c2cc(NC(=O)Nc3ccc(C(F)(F)F)cc3)ccc2O1`, the AC50 at Paired box protein Pax-8 is 4.98 µM (active).

As to `Cc1ccc2nc(-c3ccc(NC(=O)CNC4CC4)cc3)sc2c1`, the figures for the EC50 (in test [2]; on Streptokinase A; with Streptococcus) were 14.4 µM (active), > 150 µM (not active) and > 150 µM (not active), respectively.

`CC(=O)c1c(Nc2ccc3c(c2)OCCO3)oc(C)cc1=O`: in test [1], the IC50 was 54 µM (active).

With `Cc1ccc(NC(S)=NN=C(S)Nc2cccc(C(F)(F)F)c2)cc1`, the results for the EC50 (in test [2]; on Streptokinase A; in the test on Streptococcus) were 5.24 µM (active), > 150 µM (not active) and 110 µM (active), respectively.

Turning to `Nc1c(C(=O)c2ccccc2)sc(Nc2ccccc2)c1S(=O)(=O)c1ccccc1`, the EC50 in test [3] was 1.47 µM (active); in test [4], > 60 µM (not active).

For `CCOC(=O)c1c(-c2cccs2)csc1NC(=O)c1ccncc1`, the EC50 in test [3] is 2.14 µM (active); in test [4] it was > 30 µM (not active).

For the molecule `COc1ccc(S(=O)(=O)N2CCCCN3[C@H](C2)[C@H](c2ccc(C#CC(C)C)cc2)[C@@H]3CO)cc1`, on Paired box protein Pax-8, the AC50 is 9.44 µM (active).

Take `O=S(=O)(Nc1ccc(O)c(Sc2nc3ccccc3s2)c1)c1cccc2ccccc12`: the values for the EC50 (in test [2]; on Streptokinase A; in the test with Streptococcus) were 4.05 µM (active), > 150 µM (not active) and 7.08 µM (active), respectively. For the same molecule, the AC50 in test [5] is 6.45 µM (active).

For the molecule `CCOc1cccc2cc(C(=O)Oc3ccc(OC)cc3)c(=O)oc12`, in test [1], the IC50 is 52.5 µM (active).

`Cc1ccn2c(NCc3ccccc3)c(-c3cccc(SC4CCCCC4)c3)nc2c1`: the AC50 in test [5] is 4.44 µM (active).

For `C=CCc1cc(/C=N/c2ccc(N3CCOCC3)cc2)cc(OCC)c1O`, in test [1], the half-inhibitory concentration (IC50) was 13.1 µM (active).

For the molecule `c1ccc(-c2nc(N3CCN(c4ccccc4)CC3)nc(-n3ccnc3)n2)cc1`, the EC50 in test [3] was 3.53 µM (active); in test [4], > 60 µM (not active).

`COc1cc2c(cc1OC)C1(CCCC1)C(N)=C2C#N`: the IC50 in test [1] was 38 µM (active).

On to `Cc1c(C(=O)NN=C(S)NCc2ccc(Cl)cc2)oc2ccccc12`, for which the EC50 in test [2] is 7.12 µM (active); in the test on Streptococcus it was > 150 µM (not active).

Turning to `Cc1ccc(-n2cc(CN3CCC(CO)(Cc4cccc(C(F)(F)F)c4)CC3)cn2)cc1`, the EC50 is 0.896 µM (active) in test [3] and > 60 µM (not active) in test [4].

As for `C=CCc1cc(Cl)ccc1OCCn1ccnc1`, in test [1], the IC50 was 139 µM (active).

Consider `COc1ccccc1OCC#CCN1CCCC(C)C1` (stereo not given), for which the IC50 in test [1] was 182 µM (active).

Turning to `Cc1cc(C)cc(NC(=O)C(NCCN2CCOCC2)c2ccccc2)c1` (stereo not given), the half-maximal inhibitory concentration (IC50) in test [1] was 48.4 µM (active).

With `NC(=O)c1cc([N+](=O)[O-])ccc1NCc1ccc(O)cc1`, the AC50 in test [5] is 2.92 µM (active).

On to `COc1ccc(N2CCN(C(C)C(=O)N3CCCC3)CC2)cc1` (stereo not given), for which the IC50 in test [1] was 72.4 µM (active).

In the case of `O=C(NC(=S)Nc1cccc(Cl)c1N1CCCCC1)c1ccc2c(c1)OCCO2`, the EC50 in test [2] is 80.4 µM (active); on Streptokinase A it was 48 µM (active); with Streptococcus, > 150 µM (not active). Also, the half-maximal activity concentration (AC50) in test [5] was 0.707 µM (active).

As for `COc1cccc(CC2(CO)CCCN(Cc3sc(N4CCCC4)nc3Cl)C2)c1` (stereo not given), the EC50 in test [3] is 1.74 µM (active); in test [4], > 30 µM (not active).

In the case of `C[C@@H]1CCCCO[C@@H](CN(C)Cc2ccc(Cl)c(Cl)c2)[C@H](C)CN([C@H](C)CO)C(=O)c2cc(NS(=O)(=O)c3ccccc3)ccc2O1`, at Paired box protein Pax-8, the AC50 is 7.95 µM (active).

With `CC(C)Cc1nc2oc3c(Cl)ncnc3c2c2c1CCCC2`, the AC50 in test [5] was 3.3 µM (active).

As for `Cc1cnccc1CN(C)Cc1cn(C)nc1-c1ccc(Oc2ccccc2)cc1`, the figures for the EC50 in test [3] and in test [4] were 1.76 µM (active) and > 30 µM (not active), respectively.

As to `C/C(=N\Nc1nc2ccccc2[nH]1)c1ccc(Cl)s1`, the IC50 in test [1] was 42 µM (active).

As for `Cc1cccc(C)c1OCCCCN1CCNCC1`, the IC50 in test [1] is 122 µM (active).

On to `Cc1c(C(=O)NNC(=S)NCc2ccc(Cl)cc2)oc2ccccc12`, for which the EC50 at Streptokinase A is 22.5 µM (active).

For `C[C@@H]1CN([C@@H](C)CO)C(=O)c2cc(N(C)C)ccc2O[C@@H]1CN(C)Cc1ccc(Oc2ccccc2)cc1`, the AC50 at Paired box protein Pax-8 is 19.1 µM (active).

With `Cc1ccc(-c2nnn(CC(=O)N3c4ccccc4CCc4ccccc43)n2)cc1`, the EC50 in test [3] is 3.26 µM (active); in test [4] it was > 60 µM (not active).

On to `O=C(COC(=O)c1ccccc1Br)Nc1nnc(-c2ccccc2)o1`, for which the EC50 in test [2] was 0.834 µM (active); on Streptokinase A it was > 150 µM (not active); in the test with Streptococcus, 19.2 µM (active).

As to `CC12CCC(C(=O)NNC(=O)c3ccccc3)(OC1=O)C2(C)C` (stereo not given), the EC50 (in test [2]; at Streptokinase A; with Streptococcus) was > 150 µM (not active) throughout.

Turning to `O=C(NN=Cc1ccc(O)cc1)c1ccccc1NS(=O)(=O)c1cccs1`, the IC50 in test [1] was 74.4 µM (active).

As to `C[C@@H]1CCCCO[C@H](CN(C)Cc2ccc(C(F)(F)F)cc2)[C@H](C)CN([C@H](C)CO)C(=O)c2cc(NS(=O)(=O)c3cccs3)ccc2O1`, the AC50 on Paired box protein Pax-8 was 11.5 µM (active).

Regarding `COc1ccc(OC)c(C2C=C(C34CC5CC(CC(C5)C3)C4)N=C(S)N2)c1` (stereo not given), the EC50 is 11.2 µM (active) in test [2]; 1.15 µM (active) in test [3]; 14.7 µM (active) at Streptokinase A; > 150 µM (not active) in the test with Streptococcus; > 30 µM (not active) in test [4].

Take `Cc1ccc(C(c2nnnn2Cc2ccccc2)N2CC=C(c3ccc(F)cc3)CC2)cc1` (stereo not given): the EC50 was 1.95 µM (active) in test [3] and 20.8 µM (active) in test [4].

For `Cc1ccc(C)c(S(=O)(=O)N2CCN(CC(=O)NC(=O)NCc3ccccc3)CC2)c1`, the EC50 is 0.72 µM (active) in test [3] and > 60 µM (not active) in test [4].

Regarding `CCOc1ccc(CN2CCN(Cc3cccc4c3OCO4)CC2CCO)cc1` (stereo not given), the 50% effective concentration (EC50) in test [3] was 0.208 µM (active); in test [4] it was > 60 µM (not active).

Regarding `CS(=O)(=O)c1ccc2nc(NC(=O)c3ccc(NS(=O)(=O)c4ccc(F)c(F)c4)cc3)sc2c1`, the values for the EC50 (in test [2]; in the test with Streptococcus) were 0.318 µM (active) and 5.61 µM (active), respectively.

For `COc1ccc(S(=O)(=O)N[C@@H](C)C(=O)OCC(=O)Nc2cc3oc4ccccc4c3cc2OC)cc1`, the EC50 was 1.39 µM (active) in test [2], > 150 µM (not active) at Streptokinase A and 16.4 µM (active) in the test with Streptococcus.

Turning to `C/C(=N\Nc1cc(C(F)(F)F)ccc1Cl)c1ccccc1O`, the AC50 in test [5] was 83.1 µM (active).

`CC(C)(C)c1ccc(NC(=O)Cn2cnc3cc([N+](=O)[O-])ccc3c2=O)cc1`: the EC50 is 1 µM (active) in test [3] and 22.1 µM (active) in test [4].

As for `CCOC(=O)c1c(NC(=O)c2cccs2)sc2c1CCN(C(=O)OCC)C2`, the EC50 in test [2] is 12 µM (active).

By IC50 is commonly meant the concentration at which inhibition is half-maximal. A word on the EC50: it is the concentration that produces a half-maximal response. The AC50 is the midpoint of the concentration-response curve, whichever way the signal moves.
